Experimental data: US20260158056A1, “USE OF LOW MOLECULAR WEIGHT HYALURONIC ACID FOR THE TREATMENT OF LUNG MUCOSAL INFLAMMATION” (INSTITUT NATIONAL DE LA SANTÉ ET DE LA RECHERCHE MÉDICALE, priority 2021, published 2026)

Tests used:
Type in all cases: cell-based
[1] = test system: IL-8 secreted by non-CF human airway epithelial cells; assay: IL-8 ELISA, non-CF airway epithelial cell monolayers, Cytomix 24 h then Cytomix + treatment 24 h (curative); details: FIG. 12, 15; curative: Cytomix 24 h, then Cytomix + HA 1 mg/mL or Dexa 10^-6M 24 h; n=8 non-CF patients
Protocol: FIG. 12: Measurement by ELISA assay of the pro-inflammatory chemokine IL-8 secreted non-CF human airway epithelial cells cultured as monolayers. Airway epithelial cells were seeded in 48-wells plates and cultured until confluence was reached. Cells were then treated for 24 h with a pro-inflammatory chemokine cocktail (TNFα, IL1β and IFNγ 10 ng/ml each) called Cytomix (Cy). Cells were thereafter treated with a combo containing Cytomix and the anti-inflammatory dexamethasone (Dexa; 10^-6M), 15-45 kDa sodium-hyaluronic acid (HA-Na 15-45 kDa) (ARD—Pomacle—France—as prepared according to WO2004050187), 15-30 kDa sodium-hyaluronic acid (HA-Na 15-30 kDa) (Sigma Aldrich), or 30-50 kDa sodium-hyaluronic acid (HA-Na 30-50 kDa) (Sigma Aldrich) at 1 mg/mL during the following 24 h. The culture medium was finally collected and the IL-8 content was determined by ELISA assay. n=8 different non-CF patients. p<0.001 (***); p<0.01 (**); p<0.05 (*). ns: non-significant.
(§1) FIG. 15: Measurement by ELISA assay of the pro-inflammatory chemokine IL-8 secreted by non-CF human airway epithelial cells cultured as monolayers. Airway epithelial cells were seeded in 48-wells plates and cultured until confluence was reached. Cells were then treated for 24 h with a pro-inflammatory chemokine cocktail (TNFα, IL1β and IFNγ 10 ng/ml each) called Cytomix (Cy). Cells were thereafter treated with a combo containing Cytomix and the anti-inflammatory dexamethasone (Dexa; 10^-6M), 15-45 kDa sodium-hyaluronic acid (HA-Na 15-45 kDa) (ARD—Pomacle—France—as prepared according to WO2004050187), 15-45 kDa calcium-hyaluronic acid (HA-Ca 15-45 kDa; ARD), or 15-45 kDa potassium hyaluronic acid (HA-K 15-45 kDa; ARD) at 1 mg/mL during the following 24 h. The culture medium was finally collected and the IL-8 content was determined. n=8 different non-CF patients. p<0.001 (***); p<0.01 (**); p<0.05 (*). ns: non-significant.

[2] = test system: IL-8 secreted by non-CF human airway epithelial cells; assay: IL-8 ELISA, non-CF airway epithelial cell monolayers, Cytomix + treatment 24 h (co-treatment); details: FIG. 13, 16; co-treatment: Cytomix + HA 1 mg/mL or Dexa 10^-6M 24 h; n=8 non-CF patients
Protocol: (§2) FIG. 13: Measurement by ELISA assay of the pro-inflammatory chemokine IL-8 secreted by non-CF human airway epithelial cells cultured as monolayers. Airway epithelial cells were seeded in 48-wells plates and cultured until confluence was reached. Cells were then treated for 24 h with a combo containing a pro-inflammatory chemokine cocktail (TNFα, IL1β and IFNγ 10 ng/ml each) called Cytomix (Cy) and the anti-inflammatory dexamethasone (Dexa; 10^-6M), 15-45 kDa sodium-hyaluronic acid (HA-Na 15-45 kDa) (ARD—Pomacle—France—as prepared according to WO2004050187), 15-30 kDa sodium-hyaluronic acid (HA-Na 15-30 kDa) (Sigma Aldrich), or 30-50 kDa sodium-hyaluronic acid (HA-Na 30-50 kDa) (Sigma Aldrich) at 1 mg/mL. The culture medium was then collected and the IL-8 content was determined. n=8 different non-CF patients. p<0.001 (***); p<0.01 (**); p<0.05 (*). ns: non-significant.
as §1, with “FIG. 16: Measurement by” for “FIG. 15: Measurement by”, “with a combo containing a pro-inflammatory chemokine” for “with a pro-inflammatory chemokine”, “called Cytomix (Cy) and the” for “called Cytomix (Cy). Cells were thereafter treated with a combo containing Cytomix and the”, “at 1 mg/mL. The culture” for “at 1 mg/mL during the following 24 h. The culture”, “medium was then collected and” for “medium was finally collected and”

[3] = test system: IL-8 secreted by human COPD airway epithelial cells; assay: IL-8 ELISA, COPD airway epithelial cell monolayers, Cytomix + treatment 24 h (co-treatment); details: FIG. 18, 20; co-treatment: Cytomix + HA 1 mg/mL or Dexa 10^-6M 24 h; n=5 COPD patients
Protocol: as §2, with “18:” for “13:”, “by” for “by non-CF”, “human COPD” for “human”, “ng/mL” for “ng/ml”, “n=5 COPD patient.” for “n=8 different non-CF patients.”
FIG. 20: Measurement by ELISA assay of the pro-inflammatory chemokine IL-8 secreted by human COPD airway epithelial cells cultured as monolayers. Airway epithelial cells were seeded in 48-wells plates and cultured until confluence was reached. Cells were then treated for 24 h with a combo containing a pro-inflammatory chemokine cocktail (TNFα, IL1β and IFNγ 10 ng/ml each) called Cytomix (Cy) and the anti-inflammatory dexamethasone (Dexa; 10^-6M), 15-45 kDa sodium-hyaluronic acid (HA-Na 15-45 kDa) (ARD—Pomacle—France—as prepared according to WO2004050187), 15-45 kDa calcium-hyaluronic acid (HA-Ca 15-45 kDa; ARD), or 15-45 kDa potassium hyaluronic acid (HA-K 15-45 kDa; ARD) at 1 mg/mL. The culture medium was then collected and the IL-8 content was determined. n=5 different COPD patients. p<0.001 (***); p<0.01 (**); p<0.05 (*). ns: non-significant.

With “15-45 kDa potassium-hyaluronic acid [HA-K 15-45 kDa]” the “decrease in IL-8 secretion” value [1] was 17.8%, the “decrease in IL-8 secretion” value [2] was 22.2% and the “decrease in IL-8 secretion” value [3] was 27.5%.

For “30-50 kDa sodium-hyaluronic acid [HA-Na 30-50 kDa]”, the “decrease in IL-8 secretion” value [1] was 34.8%, the “decrease in IL-8 secretion” value [2] was 32.1% and the “decrease in IL-8 secretion” value [3] was 30.8%.

With “15-30 kDa sodium-hyaluronic acid [HA-Na 15-30 kDa]” the “decrease in IL-8 secretion” value [1] was 46.1%, the “decrease in IL-8 secretion” value [2] was 38.1% and the “decrease in IL-8 secretion” value [3] was 43.1%.

In the case of “15-45 kDa calcium-hyaluronic acid [HA-Ca 15-45 kDa]”, the “decrease in IL-8 secretion” value [1] is reported as 6.5%, the “decrease in IL-8 secretion” value [2] is reported as 8.5% and the “decrease in IL-8 secretion” value [3] is reported as 12.9%.

With `C[C@@H]1C[C@H]2[C@@H]3CCC4=CC(=O)C=C[C@]4(C)[C@@]3(F)[C@@H](O)C[C@]2(C)[C@@]1(O)C(=O)CO` [Dexamethasone, dexamethasone, reference compound] the “decrease in IL-8 secretion” value [1] was 21.1%, the “decrease in IL-8 secretion” value [2] was 33.9% and the “decrease in IL-8 secretion” value [3] was 32.1%.

For “15-45 kDa sodium-hyaluronic acid [HA-Na 15-45 kDa]”, the “decrease in IL-8 secretion” value [1] was 39.6%, the “decrease in IL-8 secretion” value [2] was 41.6% and the “decrease in IL-8 secretion” value [3] was 33.4%.
